Data set [1] deals with HT-29. As to the kind of experiment: Cytotoxicity against human HT-29 cells assessed as reduction of cell viability measured after 16 hrs by crystal violet staining assay. Type of data set: functional, cell-based.
The subject of data set [2] is Plasmodium falciparum. As to the kind of experiment: Antiprotozoal activity against chloroquine-sensitive Plasmodium falciparum NF54 assessed as growth inhibition incubated for 48 hrs by [3H]-hypoxanthine incorporation assay. The class given is functional, organism-based.
The subject of data set [3] is Trypanosoma cruzi. As to the kind of experiment: Antiprotozoal activity against Trypanosoma cruzi Tulahuen C4 amastigotes infected in rat L6 cells assessed as growth inhibition after 96 by photometric analysis. Type of data set: functional, organism-based.
For data set [4], the system named is Trypanosoma brucei rhodesiense. As to the kind of experiment: Antiprotozoal activity against Trypanosoma brucei rhodesiense STIB900 trypomastigotes assessed as growth inhibition after 72 hrs by Alamar Blue dye-based fluorometric analysis. The class given is functional, organism-based.
The test system of data set [5] is Leishmania donovani. As to the kind of experiment: Antiprotozoal activity against Leishmania donovani MHOM/ET/67/L82 axenic amastigotes assessed as growth inhibition after 72 hrs by Alamar Blue dye-based fluorometric analysis. Type of data set: functional, organism-based.
For data set [6], the system named is L6. Kind of data set: Cytotoxicity against rat L6 cells assessed as reduction in cell viability after 72 hrs by Alamar blue dye-based fluorometric analysis.
A short description of data set [7]: Selectivity index, ratio of IC50 for cytotoxicity against rat L6 cells to IC50 for antiprotozoal activity against Plasmodium falciparum NF54. Type of data set: toxicity, cell-based.
Data set [8] has as its system HT-1080. Kind of data set: Cytotoxicity against human HT1080 cells assessed as reduction of cell viability measured after 16 hrs by crystal violet staining assay. Type of data set: functional, cell-based. The following applies: HT-1080, 16 h.
Data set [9] deals with MM1.S. Kind of data set: Cytotoxicity against human MM1S cells assessed as reduction of cell viability incubated for overnight by MTT assay. The class given is functional, cell-based.
Data set [10] deals with Plasmodium falciparum. As to the kind of experiment: Antiprotozoal activity against asexual erythrocytic form of chloroquine-sensitive Plasmodium falciparum NF54 clone A1A9 assessed as growth inhibition incubated for 42 hrs by [3H]-hypoxanthine incorporation assay. Type of data set: functional, organism-based.
The mark [11] stands for this setting: Leishmania donovani, MHOM/ET/67/L82, 72 h.
Where [12] appears, read: Trypanosoma cruzi, Tulahuen C4, L6.

With `COc1cccc2c(-c3ccc4c(c3O)[C@@H](C)N(C)[C@@H](C)C4)c(C)cc(OC)c12`, the IC50 result in data set [1] is “Not Active”.
On the same count and under the same terms, next, `COc1cc(O)c(-c2c(C)cc(OC)c3c(OC)cccc23)c2c1[C@H](C)N[C@H](C)C2`: “Not Active”; `COc1cc(O)c2c(c1-c1c(C)cc(O)c3c(OC)cccc13)C[C@H](C)N[C@H]2C`: “Not Active”.
For `COc1cccc2c(-c3ccc4c(c3O)[C@@H](C)N[C@H](C)C4)c(C)c(-c3c(C)c(-c4ccc5c(c4O)[C@@H](C)N[C@H](C)C5)c4cccc(OC)c4c3O)c(O)c12` (stereo in doubt; 1a), the half-inhibitory concentration (IC50) in data set [2] was 0.012 µM; in data set [3] it was 14.9 µM; in data set [4], 0.49 µM; in data set [5] (setting [11]) it was over 100 µM; in data set [6], 7.9 µM; in data set [1] (read-out: IC50), over 50 µM. In addition, the “Ratio IC50” value in [7] was determined as 660.
`COc1cccc2c(-c3ccc4c(c3O)[C@@H](C)N[C@H](C)C4)c(C)c(-c3c(C)c(-c4ccc5c(c4O)[C@@H](C)N[C@H](C)C5)c4cccc(OC)c4c3O)c(O)c12` (stereo in doubt; 1b): the 50% inhibitory concentration (IC50) is 0.021 µM in data set [2], 17.1 µM in data set [3], 0.32 µM in data set [4] and 4.3 µM in data set [6]. Besides, in data set [7], the “Ratio IC50” value came out at 206.
On to `COc1cccc2c(-c3ccc4c(c3O)[C@@H](C)N[C@H](C)C4)c(C)c(-c3c(C)c(-c4ccc5c(c4O)[C@@H](C)N[C@H](C)C5)c4cccc(OC)c4c3O)c(O)c12` (stereo in doubt; 1c), for which the IC50 in data set [2] is 0.055 µM; in [3], 8.1 µM; in [4], 0.16 µM; in data set [5], 65.2 µM; in data set [6], 2.3 µM. Further, in data set [7], the “Ratio IC50” value worked out at 41.6.
For `COc1cccc2c(-c3ccc4c(c3O)[C@@H](C)N[C@H](C)C4)c(C)c(-c3c(C)c(-c4ccc5c(c4O)[C@@H](C)N[C@H](C)C5)c4cccc(OC)c4c3O)c(O)c12` (stereo in doubt; 1d) [listing 1 of 2 here], the half-maximal inhibitory concentration (IC50) came out at 13.7 µM in data set [3]; 0.82 µM in [4]; 80.2 µM in data set [5]; 15.9 µM in data set [6]; 12 µM in data set [1] (read-out: IC50); 9 µM in data set [8]. For the same compound, the half-inhibitory concentration (IC50) in data set [9] was determined as 5 µM. The “Ratio IC50” value in [7] came to 11400.
As for `COc1cccc2c(-c3ccc4c(c3O)[C@@H](C)N[C@H](C)C4)c(C)c(-c3c(C)c(-c4ccc5c(c4O)[C@@H](C)N[C@H](C)C5)c4cccc(OC)c4c3O)c(O)c12` (stereo in doubt; 1d) [listing 2 of 2 here], the inhibition result in [1] is “Dose-dependent effect”.
`COc1cccc2c(-c3ccc4c(c3O)[C@@H](C)N[C@H](C)C4)c(C)cc(O)c12` (stereo in doubt; 4a): the 50% inhibitory concentration (IC50) in data set [2] (Plasmodium falciparum, NF54) was 0.67 µM; in [3] (setting [12]) it was 24.4 µM; in data set [4] (Trypanosoma brucei, STIB900, 72 h), 6.1 µM; in data set [5] (setting [11]), over 100 µM; in [6], 9.1 µM. Moreover, in data set [7], the “Ratio IC50” value is 13.7.
Consider `COc1cccc2c(-c3ccc4c(c3O)[C@@H](C)N[C@H](C)C4)c(C)cc(O)c12` (stereo in doubt; 4b), for which the IC50 in data set [2] came to 0.85 µM; in [3] it was 45.1 µM; in [4], 4.8 µM; in data set [6] it was 44.8 µM. For the same compound, the “Ratio IC50” value in data set [7] was 52.7.
As to `O=C(Cn1ccnc1[N+](=O)[O-])NCc1ccccc1` [BENZNIDAZOLE], the IC50 in [3] (setting [12]) was 2.6 µM.
On to `COc1cccc2c(-c3ccc4c(c3O)[C@@H](C)N[C@H](C)C4)c(C)cc(OC)c12` [DIONCOPHYLLINE A], for which the IC50 in data set [10] is 3.8 µM.
Consider `CCCCCCCCCCCCCCCCOP(=O)([O-])OCC[N+](C)(C)C` [MILTEFOSINE], for which the IC50 in [5] (setting [11]) was 0.8 µM.

Source of the values: ChEMBL document CHEMBL4334514, “A Near-Complete Series of Four Atropisomeric Jozimine A2-Type Naphthylisoquinoline Dimers with Antiplasmodial and Cytotoxic Activities and Related Alkaloids from Ancistrocladus abbreviatus” (J Nat Prod, 2019).
